ChEMBL document CHEMBL1147758, “4-hydroxyisoleucine an unusual amino acid as antidyslipidemic and antihyperglycemic agent” (2006)

Experiments:
Type in all cases: functional, Mesocricetus auratus
[1] = tested on: Syrian golden hamster; test: Lowering of total cholesterol level in dyslipidemic male syrian hamsters at 50 mg/kg, po
[2] = tested on: Syrian golden hamster; test: Lowering of free fatty acids in dyslipidemic male syrian hamsters at 50 mg/kg, po
[3] = tested on: Syrian golden hamster; test: Lowering of glycerol in dyslipidemic male syrian hamsters at 50 mg/kg, po
[4] = tested on: Syrian golden hamster; test: Increase in HDL-cholesterol in dyslipidemic male syrian hamsters at 50 mg/kg, po
[5] = tested on: Syrian golden hamster; test: Lowering of plasma triglyceride level in dyslipidemic male syrian hamsters at 50 mg/kg, po
[6] = tested on: Syrian golden hamster; test: Increase in ratio between HDL-cholesterol and total cholesterol in dyslipidemic male syrian hamsters at 50 mg/kg, po

In the case of C[C@@H]([C@H](C)O)[C@H](N)C(=O)O, the Activity [1] is reported as 22%, the Activity [2] is reported as 14% and the Activity [3] is reported as 4.9%. It also gave an Activity [4] of 8.7%, an Activity [5] of 33% and a Ratio [6] of 39%.
